This passage reports IC50 results from patent US8940756B2, “Dihydronaphthyridines and related compounds useful as kinase inhibitors for the treatment of proliferative diseases” (Deciphera Pharmaceuticals, Inc., priority 2012, dated 2015).

Molecules are shown by their SMILES.

The target in test [1] is Phospho-KIT (Tyr719) in GIST430 cells (Homo sapiens, UniProt P10721). The test is described as follows: GIST430 KIT Western Blot. Particulars: 4 hours, read-out: pKIT suppression by western blot analysi GIST430. The format is cell-based.
Test [2] addresses Phospho-KIT (Tyr719) in GIST48 cells (Homo sapiens, UniProt P10721). The test is described as follows: GIST48 KIT Western Blot. The format is cell-based. Particulars: 4 hours, read-out: pKIT suppression by western blot analysi GIST48.
Test [3] has as its target T1, c-KIT VVDV kinase (V559 and V560 deleted and D816V mutation, Seq ID no. 5) (Homo sapiens, UniProt P10721, D816V/DEL559-560).
T1 construct: This construct contains residues T544-V976 of cKit (except for the D816V mutation and the deletion of residues V559 and V560); GST (N); TEV cleavage site (N); purchased deCODE Biostructures
The test is described as follows: cKIT-VVDV Kinase Assay. The test is classed as biochemical. Particulars: enzymatic assay, ATP 200 uM. How it is done:
In this assay, the oxidation of NADH (measured by decrease in absorbance at 340 nm) was continuously monitored spectrophotometrically. […] The inhibition reaction was started by mixing serial diluted test compound with the above reaction mixture. The absorption at 340 nm was monitored continuously for 5 hours at 30° C. on Synergy 2 plate reader (BioTech). […] The protein construct was prepared by deCODE Biostructures using procedures known in the art. This construct contains […] of cKit (except for the D816V […]), an N-terminal tag, a GST-fusion sequence and a TEV cleavage site. This construct is identical to Seq ID no. 1 except for the D816V […].

Test [4] deals with T2, c-KIT D816V kinase (Seq ID no. 4) (Homo sapiens, UniProt P10721, D816V).
T2 construct: D816V c-KIT (residues T544-V976 with N-terminal GST fusion, 16 nM); purchased deCODE Biostructures
The test is described as follows: c-KIT D816V kinase Assay. The conditions noted are these: enzymatic assay, ATP 200 uM. The test is classed as biochemical. Here is the method:
In this assay, the oxidation of NADH (measured by decrease in absorbance at 340 nm) was continuously monitored spectrophotometrically. […] The inhibition reaction was started by mixing serial diluted test compound with the above reaction mixture. The absorption at 340 nm was monitored continuously for 5 hours at 30° C. on Synergy 2 plate reader (BioTech).
The protein construct was prepared by deCODE Biostructures using procedures known in the art. The construct contains residues T544-V976 of cKit, an N-terminal tag, a GST-fusion sequence and a TEV cleavage site. This construct is identical to Seq ID no. 1 except for the D816V mutation.

Test [5] concerns the target T3, c-KIT D816H kinase (Seq ID no. 3) (Homo sapiens, UniProt P10721, D816H).
T3 construct: GST (N); TEV cleavage site (N); purchased deCODE Biostructures
The test is described as follows: c-KIT D816H Kinase Assay. The conditions noted are these: enzymatic assay, ATP 200 μM. The test is classed as biochemical. How it is done: In this assay, the oxidation of NADH (measured by decrease in absorbance at 340 nm) was continuously monitored spectrophotometrically. […] The inhibition reaction was started by mixing serial diluted test compound with the above reaction mixture. The absorption at 340 nm was monitored continuously for 6 hours at 30° C. on Synergy 2 plate reader (BioTech). […] The protein construct was prepared by deCODE Biostructures using procedures known in the art. The construct contains […] of cKit, an N-terminal tag, a GST-fusion sequence and a TEV cleavage site. This construct is identical to Seq ID no. 1 except for the D816H mutation.

The target of test [6] is T4, c-KIT T670I kinase (Seq ID no. 6) (Homo sapiens, UniProt P10721, T670I).
T4 construct: GST (N); TEV cleavage site (N); purchased deCODE Biostructures
The test is described as follows: c-KIT T670I Kinase Assay. The format is biochemical. The conditions noted are these: enzymatic assay, ATP 200 uM. Here is the method:
In this assay, the oxidation of NADH (measured by decrease in absorbance at 340 nm) was continuously monitored spectrophotometrically. […] The inhibition reaction was started by mixing serial diluted test compound with the above reaction mixture. The absorption at 340 nm was monitored continuously for 5 hours at 30° C. on Synergy 2 plate reader (BioTech). […] The protein construct was prepared by deCODE Biostructures using procedures known in the art. The construct contains […] of cKit, an N-terminal tag, a GST-fusion sequence and a TEV cleavage site. This construct is identical to Seq ID no.

Test [7] addresses T5, c-KIT kinase (Seq ID no. 1) (Homo sapiens, UniProt P10721).
T5 construct: GST (N); TEV cleavage site (N); purchased deCODE Biostructures
The test is described as follows: c-KIT Kinase Assay (pyruvate kinase/lactate dehydrogenase coupled). The test is classed as biochemical. The conditions noted are these: enzymatic assay, ATP 200 μM; read-out: KIT (wt). Here is the method:
In this assay, the oxidation of NADH (measured by decrease in absorbance at 340 nm) was continuously monitored spectrophotometrically. […] The absorption at 340 nm was monitored continuously for 2 hours at 30° C. on Synergy 2 (BioTeK). The reaction rate was calculated using the 0 to 1 h time frame. Percent inhibition was obtained by comparison of reaction rate with that of a control (i.e. with no test compound). IC50 values were calculated from a series of percent inhibition values determined at a range of inhibitor concentrations using software routines as implemented in the GraphPad Prism software package. The protein construct was prepared by deCODE Biostructures using procedures known in the art. The construct contains […] of cKit, an N-terminal tag, a GST-fusion sequence and a TEV cleavage site.

The target in test [8] is T6, c-KIT V654A kinase (Seq ID no. 2) (Homo sapiens, UniProt P10721, V654A).
T6 construct: V654A c-Kit (residues T544-V976 with N-terminal GST fusion, 47 nM); purchased deCODE Biostructures
The test is described as follows: c-KIT V654A Kinase Assay. Particulars: enzymatic assay, ATP 200 μM. The format is biochemical. How it is done: In this assay, the oxidation of NADH (measured by decrease in absorbance at 340 nm) was continuously monitored spectrophotometrically. […] The inhibition reaction was started by mixing serial diluted test compound with the above reaction mixture. The absorption at 340 nm was monitored continuously for 6 hours at 30° C. on Synergy 2 plate reader (BioTech).
The protein construct was prepared by deCODE Biostructures using procedures known in the art. The construct contains residues T544-V976 of cKit, an N-terminal tag, a GST-fusion sequence and a TEV cleavage site. This construct is identical to Seq ID no.

T2 sequence (P10721 544-976 D816V): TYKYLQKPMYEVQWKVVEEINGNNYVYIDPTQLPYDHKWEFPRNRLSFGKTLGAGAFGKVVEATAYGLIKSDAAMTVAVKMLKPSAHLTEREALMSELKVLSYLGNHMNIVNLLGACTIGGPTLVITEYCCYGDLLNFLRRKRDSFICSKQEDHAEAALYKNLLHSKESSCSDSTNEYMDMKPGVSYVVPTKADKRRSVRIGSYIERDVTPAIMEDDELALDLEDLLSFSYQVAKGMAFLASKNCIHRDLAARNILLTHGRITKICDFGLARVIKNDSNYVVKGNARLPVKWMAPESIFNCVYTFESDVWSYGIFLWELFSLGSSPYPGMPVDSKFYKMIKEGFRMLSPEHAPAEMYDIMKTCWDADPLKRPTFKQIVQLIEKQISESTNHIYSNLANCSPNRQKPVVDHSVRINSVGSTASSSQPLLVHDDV
T5 sequence (P10721 with tags, fused parts or gaps): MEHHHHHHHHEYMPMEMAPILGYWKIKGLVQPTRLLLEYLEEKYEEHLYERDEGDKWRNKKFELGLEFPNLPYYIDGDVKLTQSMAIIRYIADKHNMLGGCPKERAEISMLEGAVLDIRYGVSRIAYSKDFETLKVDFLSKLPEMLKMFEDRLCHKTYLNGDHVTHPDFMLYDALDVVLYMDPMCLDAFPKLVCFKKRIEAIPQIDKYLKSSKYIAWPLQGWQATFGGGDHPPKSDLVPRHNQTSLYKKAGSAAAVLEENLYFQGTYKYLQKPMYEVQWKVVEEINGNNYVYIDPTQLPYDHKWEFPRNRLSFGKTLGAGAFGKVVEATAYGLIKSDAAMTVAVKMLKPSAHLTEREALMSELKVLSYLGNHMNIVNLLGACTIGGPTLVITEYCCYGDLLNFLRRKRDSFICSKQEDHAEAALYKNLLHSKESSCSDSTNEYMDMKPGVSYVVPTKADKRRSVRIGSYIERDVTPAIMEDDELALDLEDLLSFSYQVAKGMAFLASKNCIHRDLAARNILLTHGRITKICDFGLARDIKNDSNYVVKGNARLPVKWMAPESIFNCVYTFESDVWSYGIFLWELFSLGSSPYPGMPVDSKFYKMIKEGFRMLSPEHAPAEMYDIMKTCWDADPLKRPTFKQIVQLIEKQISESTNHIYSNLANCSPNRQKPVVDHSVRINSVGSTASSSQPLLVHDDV
T4 sequence (P10721 544-976 T670I): as the sequence (P10721 544-976 D816V) above, with T127I, V273D counted along it
T6 sequence (P10721 544-976 V654A): as the sequence (P10721 544-976 D816V) above, with V111A, V273D counted along it
T3 sequence (P10721 544-976 D816H): as the sequence (P10721 544-976 D816V) above, with V273H counted along it
Chain of Phospho-KIT (Tyr719) in GIST48 cells (P10721 whole entry V560D/D820A, form open): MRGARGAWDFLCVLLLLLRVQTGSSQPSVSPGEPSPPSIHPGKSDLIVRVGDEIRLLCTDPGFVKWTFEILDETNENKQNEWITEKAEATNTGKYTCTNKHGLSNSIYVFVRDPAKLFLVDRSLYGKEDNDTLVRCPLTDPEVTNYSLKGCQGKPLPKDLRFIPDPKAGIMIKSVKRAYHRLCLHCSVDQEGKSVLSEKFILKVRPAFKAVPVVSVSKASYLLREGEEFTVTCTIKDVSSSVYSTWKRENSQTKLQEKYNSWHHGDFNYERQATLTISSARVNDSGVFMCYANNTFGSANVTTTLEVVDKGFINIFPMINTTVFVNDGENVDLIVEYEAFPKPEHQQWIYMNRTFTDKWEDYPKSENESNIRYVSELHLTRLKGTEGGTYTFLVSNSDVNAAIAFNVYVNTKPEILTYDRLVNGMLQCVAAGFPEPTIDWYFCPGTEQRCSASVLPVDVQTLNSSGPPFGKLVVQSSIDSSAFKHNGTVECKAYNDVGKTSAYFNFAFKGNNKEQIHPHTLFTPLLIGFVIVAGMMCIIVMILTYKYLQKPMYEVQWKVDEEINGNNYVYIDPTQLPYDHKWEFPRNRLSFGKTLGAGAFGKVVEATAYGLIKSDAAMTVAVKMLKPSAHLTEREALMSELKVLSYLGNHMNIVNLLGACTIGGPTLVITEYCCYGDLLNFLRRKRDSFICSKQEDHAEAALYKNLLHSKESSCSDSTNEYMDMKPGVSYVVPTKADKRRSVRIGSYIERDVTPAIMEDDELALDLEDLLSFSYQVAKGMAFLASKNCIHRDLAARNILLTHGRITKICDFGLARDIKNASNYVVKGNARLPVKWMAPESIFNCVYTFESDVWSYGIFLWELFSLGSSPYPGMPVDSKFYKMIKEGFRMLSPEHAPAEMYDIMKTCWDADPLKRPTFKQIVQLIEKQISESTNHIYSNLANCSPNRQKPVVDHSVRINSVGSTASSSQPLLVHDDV
T1 sequence (P10721 with tags, fused parts or gaps DEL559-560/D816V): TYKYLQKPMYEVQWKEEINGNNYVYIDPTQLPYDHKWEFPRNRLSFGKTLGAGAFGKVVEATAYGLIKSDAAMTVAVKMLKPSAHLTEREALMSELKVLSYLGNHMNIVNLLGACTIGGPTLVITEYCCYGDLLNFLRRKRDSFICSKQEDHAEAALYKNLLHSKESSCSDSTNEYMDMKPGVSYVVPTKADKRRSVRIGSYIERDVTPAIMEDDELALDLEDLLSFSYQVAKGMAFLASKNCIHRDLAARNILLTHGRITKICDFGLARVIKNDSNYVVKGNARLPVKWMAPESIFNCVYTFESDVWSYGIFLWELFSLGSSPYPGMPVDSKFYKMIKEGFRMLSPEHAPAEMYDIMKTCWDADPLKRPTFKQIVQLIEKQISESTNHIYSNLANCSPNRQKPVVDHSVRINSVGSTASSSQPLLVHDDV
Chain of Phospho-KIT (Tyr719) in GIST430 cells (P10721 with tags, fused parts or gaps DEL560-576/V654A, form open): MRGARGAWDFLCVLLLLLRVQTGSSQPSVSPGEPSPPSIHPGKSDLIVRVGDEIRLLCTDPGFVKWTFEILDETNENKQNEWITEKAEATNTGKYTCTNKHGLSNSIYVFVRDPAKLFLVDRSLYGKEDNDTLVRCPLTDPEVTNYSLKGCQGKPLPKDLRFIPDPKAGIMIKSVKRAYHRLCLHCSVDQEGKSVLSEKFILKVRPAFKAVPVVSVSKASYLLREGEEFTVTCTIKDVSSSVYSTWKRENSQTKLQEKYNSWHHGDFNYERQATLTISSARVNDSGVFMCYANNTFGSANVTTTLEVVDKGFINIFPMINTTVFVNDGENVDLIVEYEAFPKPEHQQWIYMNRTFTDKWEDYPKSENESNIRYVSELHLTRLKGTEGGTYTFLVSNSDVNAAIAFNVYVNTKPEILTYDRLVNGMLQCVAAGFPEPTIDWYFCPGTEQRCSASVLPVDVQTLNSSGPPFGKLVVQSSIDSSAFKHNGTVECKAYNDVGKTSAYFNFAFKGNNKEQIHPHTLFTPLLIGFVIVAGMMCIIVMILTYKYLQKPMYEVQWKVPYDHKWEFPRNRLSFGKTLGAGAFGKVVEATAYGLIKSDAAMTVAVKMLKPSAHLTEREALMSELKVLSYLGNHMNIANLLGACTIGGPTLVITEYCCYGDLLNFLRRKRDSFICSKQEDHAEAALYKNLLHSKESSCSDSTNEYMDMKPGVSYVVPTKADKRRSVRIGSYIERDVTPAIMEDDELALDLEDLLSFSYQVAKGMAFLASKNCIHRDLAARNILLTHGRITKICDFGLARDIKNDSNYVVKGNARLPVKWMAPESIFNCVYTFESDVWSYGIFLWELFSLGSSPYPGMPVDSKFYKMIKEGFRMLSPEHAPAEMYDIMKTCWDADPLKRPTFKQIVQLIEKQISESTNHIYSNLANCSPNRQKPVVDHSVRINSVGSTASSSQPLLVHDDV

As to `CCn1c(=O)c(-c2cc(NC(=O)Nc3cccc(Cl)c3)c(F)cc2F)cc2cnc(NC)cc21` [Example 17, 1-(3-chlorophenyl)-3-(5-(1-ethyl-7-(methylamino)-2-oxo-1,2-dihydro-1,6-naphthyridin-3-yl)-2,4-difluorophenyl)urea], the IC50 was in the range of 10 to 100 nM in test [1], 10 to 100 nM in test [2], 100 to 1000 nM in test [3] and 10 to 100 nM in test [4].
With `CCn1c(=O)c(-c2cc(NC(=O)Nc3ccc(F)c(CN4CCCC4)c3)c(F)cc2Cl)cc2cnc(NC)cc21` [Example 97, 1-(4-chloro-5-(1-ethyl-7-(methylamino)-2-oxo-1,2-dihydro-1,6-naphthyridin-3-yl)-2-fluorophenyl)-3-(4-fluoro-3-(pyrrolidin-1-ylmethyl)phenyl)urea], the IC50 is 10 to 100 nM in test [5], 10 to 100 nM in test [6], < 10 nM in test [7] and > 1000 nM in test [4].
On to `CC(=O)Nc1cc2c(cn1)cc(-c1cc(NC(=O)Nc3cccc(F)c3)c(F)cc1Cl)c(=O)n2C(C)C` [Example 99, N-(3-(2-chloro-4-fluoro-5-(3-(3-fluorophenyl)ureido)phenyl)-1-isopropyl-2-oxo-1,2-dihydro-1,6-naphthyridin-7-yl)acetamide], for which the IC50 in test [8] is 10 to 100 nM; in test [5], 10 to 100 nM; in test [6] it was 10 to 100 nM; in test [7], < 10 nM; in test [4] it was < 10 nM.
`Cc1cc(F)c(NC(=O)Nc2ccccc2)cc1-c1cc2cnc(NC(=O)N3CCC3)cc2n(C(C)C)c1=O` [Example 109, N-(3-(4-fluoro-2-methyl-5-(3-phenylureido)phenyl)-1-isopropyl-2-oxo-1,2-dihydro-1,6-naphthyridin-7-yl)azetidine-1-carboxamide]: the IC50 in test [2], in test [8], in test [5], in test [6], in test [7] and in test [4] was 10 to 100 nM in each case.
For the compound `CCn1c(=O)c(-c2cc(NC(=O)Nc3ccccc3)c(F)cc2C)cc2cnc(Nc3cnn(C)c3)cc21` [Example 115, 1-(5-(1-ethyl-7-((1-methyl-1H-pyrazol-4-yl)amino)-2-oxo-1,2-dihydro-1,6-naphthyridin-3-yl)-2-fluoro-4-methylphenyl)-3-phenylurea], the IC50 was 10 to 100 nM in test [8]; < 10 nM in test [5]; 10 to 100 nM in test [6]; < 10 nM in test [7]; < 10 nM in test [4].
